From patent US20040002117A1 (priority 1998, published 2004)

Experiments:
calcineurin = calcineurin (Homo sapiens, UniProt Q08209, L343A/M347D/Y341S); assay: 1H NMR titration spectroscopy binding experiments; conditions: 10 μM compound, 20 μM calcineurin, 25° C., buffered D2O
Description: T2-filtered ^1H NMR spectra were obtained on a Bruker Avance 600 instrument with CryoPhobe using low-power presaturation of residual water. Preacquisition delays included up to five spin echos to suppress fast-relaxing broad protein resonances and were times to yield in-phase signals for J-coupled spins. Chemical shifts were referenced to internal standard 5 μM 2,2-dimethylsilapentane-5-sulfonic acid (DSS).

[1] = biological target: T1, recombinant human calcineurin catalytic domain, calcineurin(2-347) (Homo sapiens, UniProt Q08209, L343A/M347D/Y341S); assay: fluorescence polarization competition assay, displacement of OG-VIVIT from calcineurin; type: binding
T1 construct: GST (N, cleaved yes); made in house; host or cells: E. coli strain DH5α
Description: Samples were analyzed as described in the preceding paragraph, and the resulting polarization data were plotted against the concentration of unlabelled VIVIT peptide, as shown in FIG. 8B.
The library stocks were dissolved at a nominal concentration of 10 mM in DMSO, and formatted for convenient robotic transfer on 384-well plates at the Institute of Chemistry and Cell Biology, Harvard Medical School. To initiate the competition assay, 40 nl volumes were pin-transferred from each well of a library stock plate to the corresponding wells of an assay plate, utilizing a robotic device. After a minimum 10 min incubation at room temperature to allow the binding to reach equilibrium, fluorescence polarization data were collected employing an Analyst plate reader (Molecular Devices).
Stocks of candidate inhibitor compounds and their structural analogues were purchased from ChemBridge or Asinex. The structure and purity of individual compounds were verified by ^1H NMR, mass spectrometry, or thin-layer chromatography. […] INCA1, INCA2, and INCA6 can be represented generally as follows: […]

[2] = test system: nuclear import of NFAT in C1.7W2 T cells; assay: NFAT1 immune staining assay, nuclear import in C1.7W2 T cells; type: cell-based, murine; conditions: INCA6 20 μM or 40 μM; CsA/FK506 1 μM/100 nM; 1 μM ionomycin 15 min
Description: For an immune staining assay, C1.7W2 T cells growing on coverslips in Dulbecco's modified Eagle medium, supplemented with 10% fetal calf serum, 10 mM HEPES, and 2 mM glutamine, at 37 C. were pretreated with medium alone, with INCA6 (20 μM or 40 μM), or with CsA/FK506 (1 μM/100 nM) for 10 min, then stimulated for an additional 15 min with 1 μM ionomycin, in medium alone or in the continued presence of inhibitor as appropriate. Medium was removed, and the cells were fixed, permeabilized, and stained using the anti-67.1 antiserum against NFAT1 (A Ho et al (1994) J Biol Chem 269, 28181-28186) and a fluorescent second antibody.

[3] = test system: PMA-MAP kinase signalling pathway in C1.7W2 T cells; assay: phosphorylation of p44/p42 MAP kinase in PMA-stimulated C1.7W2 T cells; type: cell-based, murine; conditions: INCA6 pretreatment; 20 nM PMA 15 min
Description: Dephosphorylation of NFAT is evident in the shift of the stained NFAT band the sample from cells that were stimulated with ionomycin in the absence of inhibitor (FIG. 12A, lane 2). […] Activation of the latter pathway was monitored by examining phosphorylation of p44/p42 MAP kinase. For this assay the cells were pretreated and incubated as for the NFAT dephosphorylation assay, except that stimulation was for 15 min with 20 nM PMA. Cells were collected by centrifugation, lysed in Laemmli sample buffer, and analyzed by Western blotting with an anti-phospho-p44/p42 MAP kinase antibody (Cell Signaling Technology).

[4] = test system: NFAT dephosphorylation by calcineurin in C1.7W2 T cells; assay: ionomycin-induced NFAT dephosphorylation in C1.7W2 T cells, Western blot; type: cell-based, murine; conditions: 1 μM ionomycin 15 min
Description: For the dephosphorylation assay, C1.7W2 T cells were pretreated in Dulbecco's modified Eagle medium, supplemented with 10% fetal calf serum, 10 mM HEPES, and 2 mM glutamine, at 37 C. with INCA6 (5-40 μM) for 10 min, then stimulated for an additional 15 min with 1 μM ionomycin in the continued presence of inhibitor. Control incubations omitted INCA6, ionomycin, or both. DMSO was present at equal concentrations in all incubations. Cells were collected by centrifugation and lysed in Laemmli sample buffer. Samples were analyzed by SDS-polyacrylamide gel electrophoresis according to Laemmli (U K Laemmli (1970) Nature 227, 680-685) using a 6% separating gel, transferred to nitrocellulose membrane, and probed with an antiserum to NFAT1.

[5] = test system: cytokine mRNAs in C1.7W2 T cells; assay: RNase protection assay of cytokine mRNAs in C1.7W2 T cells stimulated with PMA and ionomycin; type: cell-based, murine
Description: The effects of INCA6 on transcription were examined in the case of several cytokine mRNAs that are known targets of calcineurin-NFAT signalling. C1.7W2 T cells were preincubated for 10 min. in medium alone, in medium containing INCA6, or in medium containing CsA and FK506, then stimulated under conditions that normally initiate signalling through the calcium-calmodulin-calcineurin-NFAT pathway. Cells in control samples that had not been pretreated with inhibitor were left unstimulated, or were stimulated for 45 min with 20 nM PMA alone, or with 20 nM PMA and 1 μM ionomycin. Cells in parallel samples that had been pretreated for 10 min with inhibitor were then further incubated for 45 min without stimulation or with PMA and ionomycin, in the continued presence of inhibitor. At the end of the incubation, cells were harvested and total cellular RNA was extracted using Ultraspec RNA-binding resin (Biotecx Laboratories). Levels of cytokine mRNAs were analyzed by RNase protection assays performed with RiboQuant multiprobe kits (Pharmingen) following the instructions of the manufacturer. Briefly, for each sample 10 μg of target RNA was hybridized overnight to a ^32P-labelled RNA probe that had been synthesized in vitro from a template set representing multiple murine cytokine mRNAs, and then the unhybridized probe and other single-stranded RNAs were digested with RNases. The protected RNAs were purified, and probes for the individual cytokine mRNAs were resolved on a denaturing 6% polyacrylamide gel. Transcript levels were quantified by autoradiography and by use of a phosphorimager (Molecular Dynamics). Probes for the individual cytokine transcripts were identified by the length of the respective protected fragments. The results are presented in FIGS. 14A to 14C, which are pictures of RNA gel autoradiograms. Data were corrected for minor variations in RNA loading by normalizing the data for each sample to the intensity of the signal for the housekeeping transcripts L32 and GAPDH (see lower panels of FIGS. 14A, 14B, and 14C).

T1 sequence (Q08209 2-347 Y341S/L343A/M347D): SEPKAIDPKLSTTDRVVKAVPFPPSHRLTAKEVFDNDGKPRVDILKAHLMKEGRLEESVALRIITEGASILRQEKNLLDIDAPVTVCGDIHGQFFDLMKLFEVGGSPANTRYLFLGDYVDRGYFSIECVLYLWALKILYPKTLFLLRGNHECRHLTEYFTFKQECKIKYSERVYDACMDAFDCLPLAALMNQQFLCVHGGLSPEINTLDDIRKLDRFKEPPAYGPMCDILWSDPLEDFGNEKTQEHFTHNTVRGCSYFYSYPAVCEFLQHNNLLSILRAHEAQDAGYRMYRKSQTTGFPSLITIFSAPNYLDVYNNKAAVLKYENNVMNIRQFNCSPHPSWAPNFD
Chain of calcineurin (Q08209 2-347 Y341S/L343A/M347D limits assumed): as the sequence (Q08209 2-347 Y341S/L343A/M347D) above

binding to calcineurin in the absence of VIVIT peptide (calcineurin): direct molecular interaction
Ki [1]: 0.8 to 5 µM
displacement of OG-VIVIT from calcineurin ([1]; at high concentrations, 1 μM calcineurin, 60 nM OG-VIVIT): complete
IC50 ([1]; calcineurin-VIVIT peptide interaction, read-out: Estimated IC50): 17 µM
SMILES: O=C1C=CC(=O)C2=C1C1c3ccccc3C2c2ccccc21 [INCA6]
localization of NFAT immune staining in ionomycin-stimulated cells [2]: localized to the cytoplasm
activation of the PMA-MAP kinase signalling pathway (phosphorylation of p44/p42 MAP kinase) [3]: not blocked
blockade of NFAT dephosphorylation in cells ([4]; 10 μM INCA6): partial
blockade of NFAT dephosphorylation in cells ([4]; 20 μM INCA6): nearly complete
blockade of NFAT dephosphorylation in cells ([4]; 40 μM INCA6): total
induction of GM-CSF mRNA ([5]; 20 μM INCA6, 20 nM PMA and 1 μM ionomycin 45 min): partially prevented
induction of lymphotactin (Ltn), MIP1β, and MIP-1α mRNAs ([5]; 20 μM INCA6, PMA and ionomycin): partially blocked
induction of TNFα mRNA ([5]; 20 μM or 40 μM INCA6, CsA/FK506, PMA and ionomycin): inhibited
induction of GM-CSF mRNA ([5]; 40 μM INCA6, CsA/FK506 1 μM/100 nM, PMA and ionomycin 45 min): fully blocked
induction of lymphotactin (Ltn), MIP1β, and MIP-1α mRNAs ([5]; 40 μM INCA6, CsA/FK506, PMA and ionomycin): fully blocked
induction of IFNγ mRNA ([5]; INCA6, CsA/FK506, PMA and ionomycin): inhibited
levels of TNFβ, RANTES, and IP-10 mRNAs ([5]; not downstream targets of NFAT): unaffected
basal level of GM-CSF mRNA ([5]; unstimulated cells): not affected
